Laboratory results from patent US7511041B2, “Fused azole-pyrimidine derivatives” (Bayer Pharmaceuticals Corporation, priority 2002, dated 2009).
Like-named read-outs stand apart in the source and are kept apart here.

Key:
[1] = target: T1, Recombinant human PI3Kγ (full length human PI3K p110γ) (Homo sapiens, UniProt P48736); assay: Kinase assay of PI3Kγ (solid-phase lipid kinase assay); assay type: biochemical
T1 construct: full length human PI3K p110γ fused with a His6-tag at the C-terminus; His6 (C); purchased ALEXIS BIOCHEMICALS #201-055-C010; host or cells: S. frugiperda 9 insect cells
T1 sequence (P48736 whole entry, the tested form may be a part): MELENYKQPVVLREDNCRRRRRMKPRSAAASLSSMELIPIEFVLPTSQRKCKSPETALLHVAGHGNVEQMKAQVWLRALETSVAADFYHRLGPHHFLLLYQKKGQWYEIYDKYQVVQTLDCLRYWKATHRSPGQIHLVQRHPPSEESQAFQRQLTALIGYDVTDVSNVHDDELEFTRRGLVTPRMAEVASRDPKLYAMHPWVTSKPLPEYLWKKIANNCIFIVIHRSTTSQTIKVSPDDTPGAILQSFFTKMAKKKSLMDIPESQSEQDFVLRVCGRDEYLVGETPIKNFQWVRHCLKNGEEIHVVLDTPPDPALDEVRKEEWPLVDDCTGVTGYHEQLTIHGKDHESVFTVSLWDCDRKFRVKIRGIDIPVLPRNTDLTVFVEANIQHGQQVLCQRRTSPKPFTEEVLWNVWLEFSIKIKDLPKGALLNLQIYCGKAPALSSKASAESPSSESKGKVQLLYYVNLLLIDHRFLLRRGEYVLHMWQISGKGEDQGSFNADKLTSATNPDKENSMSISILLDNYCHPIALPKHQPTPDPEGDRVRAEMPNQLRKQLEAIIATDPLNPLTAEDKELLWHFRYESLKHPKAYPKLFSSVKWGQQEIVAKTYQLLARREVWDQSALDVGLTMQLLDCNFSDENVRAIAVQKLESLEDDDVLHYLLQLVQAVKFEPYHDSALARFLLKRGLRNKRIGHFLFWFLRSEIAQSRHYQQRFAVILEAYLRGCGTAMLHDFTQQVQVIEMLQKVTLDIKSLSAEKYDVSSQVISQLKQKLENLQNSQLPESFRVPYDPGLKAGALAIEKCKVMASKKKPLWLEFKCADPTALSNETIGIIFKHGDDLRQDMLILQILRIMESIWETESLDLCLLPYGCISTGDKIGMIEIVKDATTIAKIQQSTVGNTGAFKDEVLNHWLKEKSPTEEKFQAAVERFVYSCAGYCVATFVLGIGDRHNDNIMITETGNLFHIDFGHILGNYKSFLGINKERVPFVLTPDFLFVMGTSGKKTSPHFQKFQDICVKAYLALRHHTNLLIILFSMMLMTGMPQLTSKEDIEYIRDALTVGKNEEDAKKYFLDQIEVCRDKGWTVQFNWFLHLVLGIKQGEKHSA
Source text: [Determination of IC50 Values of Compounds in Kinase Assay of PI3Kγ]
Chemicals and Assay Materials
LABORATORIES (Toronto, Canada). Recombinant human PI3Kγ (full length human PI3K p110γ fused with a His6-tag at the C-terminus expressed in S. frugiperda 9 insect cells) was obtained from ALEXIS BIOCHEMICALS (#201-055-C010; San Diego, Calif.). […] BIOTECH (Buckinghamshire, UK) and ROCHE DIAGNOSTICS (Mannheim, Germany), respectively. Scintillation cocktails and MicroScint PS™ were purchased from PACKARD (Meriden, Conn.). Maxisorp™ plates were purchased from NALGE NUNC INTERNATIONAL K.K. (Tokyo, Japan). All other chemicals not further specified were from WAKO PURE CHEMICALS (Osaka, Japan).
Solid-Phase Lipid Kinase Assay
The plates were subsequently air-dried by incubation for at least 2 hours in a fume hood. The reaction was set up by mixing 25 μl/well of assay buffer 2× (100 mM MOPSO/NaOH, 0.2 M NaCl, pH 7.0, 8 mM MgCl2, 2 mg/ml BSA (fatty acid-free)) and 50 ng/well PI3Kγ in the lipid pre-coated plate and 10× test compounds were added in 2% DMSO. The reaction was started by adding 20 μl/well of ATP mix (final 10 μM ATP; 0.05 μCi/well [γ^33P]ATP). After incubation at RT for 2 hours, the reaction was terminated by adding 50 μl/well stop solution (50 mM EDTA, pH 8.0). The plate was then washed twice with Tris-buffered saline (TBS, pH 7.4). MicroScint PS™ (PACKARD) scintillation mix was added at 100 μl/well, and radioactivity was counted by using a TopCount™ (PACKARD) scintillation counter.
The inhibition percent at each concentration of compound was calculated, and IC50 values were determined from the inhibition of curve.

[2] = Table 1, isozyme not given, read-out: in vitro
[3] = in vitro PI3K-γ inhibitory activity, class symbols A-D, read-out: in vitro PI3K-gamma
[4] = in vitro PI3K-γ inhibitory activity, class symbols, read-out: in vitro PI3K-gamma

melting point | IC50 [1, 2] [µM] | IC50 [1, 3] [µM] | IC50 [1, 4] [µM] | Structure (SMILES)
337 °C (dec.) | < 0.1 | – | – | O/C(=C\C1=Nc2cc(N3CCOCC3)ccc2C2=NCCN12)c1cncc(O)c1 [Example 1-98]
255 to 258 °C | > 2 | – | – | O=[N+]([O-])c1cc(/C(O)=C/C2=Nc3ccccc3C3=NCCN23)cs1 [Example 1-178]
249 °C | – | – | 0.1 to 0.5 | Cl.O=C(NC1=Nc2cccc(Cl)c2C2=NCCN12)c1cccnc1 [Example 2-98]
146 to 148 °C | – | – | 0.1 to 0.5 | Cc1nc(N)ccc1C(=O)NC1=Nc2ccccc2C2=NCCN12 [Example 2-157]
> 300 °C | – | – | 0.1 to 0.5 | Cl.O=C(NC1=Nc2ccc(F)cc2C2=NCCN12)c1ccc2[nH]cnc2c1 [Example 2-83]
242 °C | – | 0.5 to 2 | – | O=C(NC1=Nc2ccc(F)cc2C2=NCCN12)c1cccnc1 [Example 2-360]
> 285 °C | < 0.1 | – | – | Cc1cccc2c1N=C(/C=C(\O)c1ccc3[nH]cnc3c1)N1CCN=C21.Cl [Example 1-79]
255 °C (dec.) | – | – | < 0.1 | Cc1nc(C)c(C(=O)NC2=Nc3cc(N4CCOCC4)ccc3C3=NCCN23)s1.Cl [Example 2-17]
202 °C | 0.1 to 0.5 | – | – | O/C(=C\C1=Nc2ccccc2C2=NCCN12)c1cccnc1 [Example 1-134]
228 °C | – | – | 0.1 to 0.5 | O=C(NC1=Nc2ccc(Br)cc2C2=NCCN12)c1cccnc1 [Example 2-87]
219 °C | 0.1 to 0.5 | – | – | O/C(=C\C1=Nc2cc(CN3CCOCC3)ccc2C2=NCCN12)c1ccc2[nH]cnc2c1 [Example 1-115]
256 °C | 0.5 to 2 | – | – | N#Cc1ccc(/C(O)=C/C2=Nc3ccccc3C3=NCCN23)s1 [Example 1-177]
330 °C (dec.) | – | > 2 | – | COc1cc(OC)cc(C(=O)NC2=Nc3ccccc3C3=NCCN23)c1 [Example 2-239]
285 °C (dec.) | 0.1 to 0.5 | – | – | Cl.O=C(O)CCCc1ccc2c(n1)N=C(/C=C(\O)c1cccnc1)N1CCN=C21 [Example 1-202]
193 °C | < 0.1 | – | – | O/C(=C\C1=Nc2ccccc2C2=NCCN12)c1cccs1 [Example 1-146]
260 to 261 °C | – | > 2 | – | O=C(NC1=Nc2ccccc2C2=NCCN12)c1csc(-c2cccnc2)n1 [Example 2-319]
233 to 235 °C | 0.1 to 0.5 | – | – | O/C(=C\C1=Nc2ccccc2C2=NCCN12)c1cnccn1 [Example 1-141]
240 °C (dec.) | < 0.1 | – | – | COc1c(OCC(=O)O)ccc2c1N=C(/C=C(\O)c1cccnc1)N1CCN=C21.Cl [Example 1-22]
270 to 274 °C (dec.) | – | – | 0.1 to 0.5 | Cl.O=C(NC1=Nc2cc(O)ccc2C2=NCCN12)c1cccnc1 [Example 2-195]
120 °C (dec.) | 0.1 to 0.5 | – | – | O/C(=C\C1=Nc2c(Br)cccc2C2=NCCN12)c1cccnc1 [Example 1-73]
253 to 255 °C | – | > 2 | – | COC(=O)c1ccc(C(=O)NC2=Nc3ccccc3C3=NCCN23)cc1 [Example 2-273]
269 °C (dec.) | < 0.1 | – | – | CC(=O)Nc1ccc(/C(O)=C/C2=Nc3cc(N4CCOCC4)ccc3C3=NCCN23)cn1 [Example 1-96]
179 to 180 °C | – | > 2 | – | O=C(NC1=Nc2ccccc2C2=NCCN12)C1CCNCC1 [Example 2-339]
308 °C | – | – | 0.1 to 0.5 | Cl.O=C(NC1=Nc2cc(Cl)ccc2C2=NCCN12)c1cccnc1 [Example 2-38]
283 °C | 0.1 to 0.5 | – | – | COc1cc2c(cc1OC)C1=NCCN1C(/C=C(\O)c1ccc(Cl)nc1)=N2 [Example 1-55]
244 °C | – | > 2 | – | O=C(NC1=Nc2ccc(N3CCOCC3)cc2C2=NCCN12)c1cccnc1 [Example 2-347]
233 °C | – | > 2 | – | O=C(NC1=Nc2cccc(Cl)c2C2=NCCN12)c1cccs1 [Example 2-358]
248 to 249 °C | – | – | 0.1 to 0.5 | Cl.O=C(NC1=Nc2ccccc2C2=NCCN12)c1cc2cccnc2nc1C(F)(F)F [Example 2-176]

melting point | IC50 [1, 2] [µM] | IC50 [1, 3] [µM] | IC50 [1, 4] [µM] | Structure (SMILES)
194 °C (dec.) | – | 0.5 to 2 | – | O=C(NC1=Nc2ccccc2C2=NCCN12)C(Cl)(Cl)Cl [Example 2-332]
305 °C (dec.) | – | – | < 0.1 | COc1cc2c(c(OC)c1C)N=C(NC(=O)c1ccc(NC(C)=O)nc1)N1CCN=C21.Cl [Example 2-80]
224 to 225 °C | – | > 2 | – | CCC(=O)NC1=Nc2cc(OC)c(OC)cc2C2=NCCN12 [Example 2-344]
243 °C | – | 0.5 to 2 | – | O=C(NC1=Nc2cccc(Cl)c2C2=NCCN12)c1cccnc1 [Example 2-357]
340 °C (dec.) | – | – | 0.1 to 0.5 | Cl.O=C(NC1=Nc2ccccc2C2=NCCN12)c1cccnc1Cl [Example 2-135]
295 °C | – | – | 0.1 to 0.5 | Cc1ccc2c(c1)N=C(NC(=O)c1ccc3[nH]cnc3c1)N1CCN=C21.Cl [Example 2-30]
333 °C (dec.) | – | – | 0.1 to 0.5 | Cl.Cn1cnc2cc(C(=O)NC3=Nc4ccccc4C4=NCCN34)ccc21 [Example 2-167]
187 to 188 °C | – | – | 0.1 to 0.5 | O=C(NC1=Nc2ccccc2C2=NCCN12)c1cccs1 [Example 2-178]
219 °C (dec.) | – | 0.5 to 2 | – | O=C(NC1=Nc2ccccc2C2=NCCN12)c1csnn1 [Example 2-307]
210 °C (dec.) | – | – | < 0.1 | COc1cc(OC)c2c(c1)C1=NCCN1C(NC(=O)c1ccc3[nH]cnc3c1)=N2 [Example 2-72]
> 300 °C | 0.1 to 0.5 | – | – | CN1CCN(c2ccc3c(c2)N=C(/C=C(\O)c2ccc4[nH]cnc4c2)N2CCN=C32)CC1.Cl [Example 1-108]
296 °C | – | 0.1 to 0.5 | – | NC(=O)COc1ccc2c(c1)N=C(NC(=O)c1cccnc1)N1CCN=C21 [Example 2-206]
267 to 268 °C | – | 0.5 to 2 | – | O=C(NC1=Nc2ccccc2C2=NCCN12)c1cnccn1 [Example 2-292]
269 to 270 °C | < 0.1 | – | – | COc1ccc2c(c1OC)N=C(/C=C(\O)c1cccnc1)N1CCN=C21 [Example 1-10]
246 to 247 °C | – | 0.1 to 0.5 | – | O=C(NC1=Nc2ccccc2C2=NCCN12)c1ccc(Cl)nc1 [Example 2-291]
210 to 211 °C | – | > 2 | – | O=C(NC1=Nc2ccccc2C2=NCCN12)C(F)(F)C(F)(F)F [Example 2-333]
> 300 °C | – | – | 0.1 to 0.5 | O=C(NC1=Nc2cc(C(F)(F)F)ccc2C2=NCCN12)c1ccc2[nH]cnc2c1 [Example 2-36]
188 to 190 °C | – | > 2 | – | CN(C)c1cccc(C(=O)NC2=Nc3ccccc3C3=NCCN23)c1 [Example 2-258]
316 °C (dec.) | – | > 2 | – | Cl.O=C(NC1=Nc2ccccc2C2=NCCN12)c1cccc2cccnc12 [Example 2-318]
287 °C (dec.) | – | – | 0.1 to 0.5 | Cc1ccc(C(=O)NC2=Nc3ccccc3C3=NCCN23)c(Cl)n1.Cl [Example 2-156]
167 °C (dec.) | – | – | 0.1 to 0.5 | O=C(NC1=Nc2ccccc2C2=NCCN12)c1ccsc1 [Example 2-183]
> 290 °C | – | – | 0.1 to 0.5 | Cc1cc(Br)c2c(c1)C1=NCCN1C(NC(=O)c1ccc3[nH]cnc3c1)=N2 [Example 2-75]
> 300 °C | < 0.1 | – | – | Cl.NCC(=O)Oc1ccc2c(c1)C1=NCCN1C(/C=C(\O)c1cccnc1)=N2 [Example 1-128]
226 °C | 0.1 to 0.5 | – | – | O/C(=C\C1=Nc2cc(Cl)ccc2C2=NCCN12)c1cccnc1 [Example 1-116]
> 300 °C | – | – | < 0.1 | O=C(NC1=Nc2ccccc2C2=NCCN12)c1cnc2[nH]cnc2c1 [Example 2-172]
246 to 248 °C | – | > 2 | – | Cc1cc(C)cc(C(=O)NC2=Nc3ccccc3C3=NCCN23)c1 [Example 2-219]
219 °C (dec.) | – | – | 0.1 to 0.5 | COc1cncc(C(=O)NC2=Nc3ccccc3C3=NCCN23)c1 [Example 2-140]

Structure (SMILES) | melting point | IC50 [1, 2] [µM] | IC50 [1, 3] [µM] | IC50 [1, 4] [µM]
CC(=O)Nc1cccc(C(=O)NC2=Nc3ccccc3C3=NCCN23)c1.O=C(O)C(F)(F)F [Example 2-262] | 253 °C (dec.) | – | > 2 | –
